Test [1] has as its target T1, Furin (108-574-Tev-Flag-His) enzyme (Homo sapiens, UniProt P09958).
T1 construct: Furin (108-574-Tev-Flag-His) enzyme was expressed and purified from CHO cells; TEV cleavage site (C); FLAG (C); His (C); made in house; host or cells: CHO cells
The test is described as follows: Furin enzyme assay. It counts as biochemical. Summed up:
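CHO-expressed, purified furin construct at 40 pM in 100 mM HEPES pH7.5, 1 mM CaCl2, 0.005% Triton X-100. Eleven-point 1:3 series, 0.00017–10 μM final, incubated 2 h at room temperature and read on Envision. pXC50 from four-parameter fit.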

Test [2] concerns the target T2, furin (endogenous protease) in U20S cells (Homo sapiens, UniProt P09958).
T2 construct: the endogenous protease cleaves GFP; endogenous in cells; host or cells: U2OS cells transduced with a BacMam reporter
As to the kind of experiment: Furin cell-based assay (image-based, Golgi-targeted GFP with BMP10 furin/PCSK cleavage site).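 Further: Read-out is mean GFP fluorescence of Golgi puncta per cell by high-content imaging, retained when furin inhibited, over an eleven-point 0.00017–10 µM series, four-parameter fit.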 Particulars: 24-hour incubation, read-out: furin golgi cell pXC50 (converted).

Molecules are shown by their SMILES. Counter-ions that a name gives are not always drawn.

We go through 22 compounds from US11773078B2, “Furin inhibitors” (Glaxosmithkline Intellectual Property Development Limited, priority 2018, dated 2023).

T1 sequence (P09958 108-574): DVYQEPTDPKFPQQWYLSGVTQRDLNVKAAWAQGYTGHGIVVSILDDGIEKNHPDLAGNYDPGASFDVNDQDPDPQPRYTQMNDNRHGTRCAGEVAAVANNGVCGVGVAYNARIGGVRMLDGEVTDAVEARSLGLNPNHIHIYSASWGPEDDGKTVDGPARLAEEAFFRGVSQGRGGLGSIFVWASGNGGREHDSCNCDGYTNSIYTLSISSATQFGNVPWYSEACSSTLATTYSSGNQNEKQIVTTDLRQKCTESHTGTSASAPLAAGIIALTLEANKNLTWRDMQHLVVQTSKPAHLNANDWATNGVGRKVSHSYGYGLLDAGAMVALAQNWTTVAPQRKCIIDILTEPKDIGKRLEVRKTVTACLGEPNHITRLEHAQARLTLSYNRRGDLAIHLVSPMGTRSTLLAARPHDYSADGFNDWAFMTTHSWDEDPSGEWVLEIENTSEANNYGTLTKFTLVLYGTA
T2 sequence (P09958 108-794): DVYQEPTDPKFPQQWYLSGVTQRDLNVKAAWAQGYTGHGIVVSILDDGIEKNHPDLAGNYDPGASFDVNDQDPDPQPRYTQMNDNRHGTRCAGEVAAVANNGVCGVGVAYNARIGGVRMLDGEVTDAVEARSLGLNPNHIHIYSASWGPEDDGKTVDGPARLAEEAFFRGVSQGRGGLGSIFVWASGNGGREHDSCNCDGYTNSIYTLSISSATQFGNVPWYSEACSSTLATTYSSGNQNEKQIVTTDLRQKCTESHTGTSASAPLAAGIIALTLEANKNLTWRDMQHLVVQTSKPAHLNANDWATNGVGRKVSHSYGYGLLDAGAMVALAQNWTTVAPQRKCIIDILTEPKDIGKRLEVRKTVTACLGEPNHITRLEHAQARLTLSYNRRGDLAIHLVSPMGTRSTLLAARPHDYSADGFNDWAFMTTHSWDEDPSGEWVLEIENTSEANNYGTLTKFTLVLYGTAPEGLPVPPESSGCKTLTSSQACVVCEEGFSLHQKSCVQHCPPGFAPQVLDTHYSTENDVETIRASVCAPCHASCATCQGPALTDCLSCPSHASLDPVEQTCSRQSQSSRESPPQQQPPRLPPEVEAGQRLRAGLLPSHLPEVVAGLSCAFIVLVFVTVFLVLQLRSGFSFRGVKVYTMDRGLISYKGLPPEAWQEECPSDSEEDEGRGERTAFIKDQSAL

Take `NC(=O)CN1CCN(Cc2cc(Oc3cnc(N4CCN(CCC(=O)O)CC4)nc3)nc(-c3cc(Cl)cc(Cl)c3)c2)CC1` [Example 79, 3-(4-(5-((4-((4-(2-amino-2-oxoethyl)piperazin-1-yl)methyl)-6-(3,5-dichlorophenyl)pyridin-2-yl)oxy)pyrimidin-2-yl)piperazin-1-yl)propanoic acid]: the “furin enzyme pIC50” value in test [1] is reported as 8.3. In addition, the EC50 in test [2] was 79.4 nM.
Consider `CS(=O)(=O)N[C@H]1[C@@H]2CCN(Cc3cc(Oc4cnc(N5CCN(CCC(=O)O)CC5)nc4)nc(-c4cc(Cl)cc(Cl)c4)c3)CC[C@@H]21` [Example 80, 3-(4-(5-((6-(3,5-dichlorophenyl)-4-(((1R,7S,8r)-8-(methylsulfonamido)-4-azabicyclo[5.1.0]octan-4-yl)methyl)pyridin-2-yl)oxy)pyrimidin-2-yl)piperazin-1-yl)propanoic acid], for which, in test [1], the “furin enzyme pIC50” value amounted to 9.5. In addition, the EC50 in test [2] was 7.94 nM.
For `CC(CCN1CCN(c2ncc(Oc3cc(CN4CC[C@@H]5[C@H](CC4)[C@H]5NS(C)(=O)=O)cc(-c4cc(Cl)cc(Cl)c4)n3)cn2)CC1)C(=O)O` (stereo partly drawn) [Example 81, 4-(4-(5-((6-(3,5-dichlorophenyl)-4-(((1R,7S,8r)-8-(methylsulfonamido)-4-azabicyclo[5.1.0]octan-4-yl)methyl)pyridin-2-yl)oxy)pyrimidin-2-yl)piperazin-1-yl)-2-methylbutanoic acid] the same measures were 9.4 and 6.31 nM.
For `CC(=O)N[C@H]1[C@@H]2CCN(Cc3cc(Oc4cnc(N5CCN(CCC(C)C(=O)O)CC5)nc4)nc(-c4cc(Cl)cc(Cl)c4)c3)CC[C@@H]21` (stereo partly drawn) [Example 82, 4-(4-(5-((4-(((1R,7S,8r)-8-acetamido-4-azabicyclo[5.1.0]octan-4-yl)methyl)-6-(3,5-dichlorophenyl)pyridin-2-yl)oxy)pyrimidin-2-yl)piperazin-1-yl)-2-methylbutanoic acid] the same measures were 9.3 and 5.01 nM.
On the same counts, the results for `CC(CCN1CCN(c2ncc(Oc3cc(CN4CCCC4)cc(-c4cc(Cl)cc(Cl)c4)n3)cn2)CC1)C(=O)O` (centres unmarked) [Example 83, 4-(4-(5-((6-(3,5-dichlorophenyl)-4-(pyrrolidin-1-ylmethyl)pyridin-2-yl)oxy)pyrimidin-2-yl)piperazin-1-yl)-2-methylbutanoic acid] are 8.9 and 50.1 nM.
Regarding `O=C(O)CCN1CCN(c2ncc(Oc3cc(CN4CCC(CNC(=O)C5CC5)CC4)cc(-c4cc(Cl)cc(Cl)c4)n3)cn2)CC1` [Example 84, 3-(4-(5-((4-((4-(cyclopropanecarboxamidomethyl)piperidin-1-yl)methyl)-6-(3,5-dichlorophenyl)pyridin-2-yl)oxy)pyrimidin-2-yl)piperazin-1-yl)propanoic acid], in test [1], the “furin enzyme pIC50” value amounted to 9.3. In test [2], the EC50 is 7.94 nM.
As for `CP(C)(=O)CC1CCN(Cc2cc(Oc3ccc(N4CCN(CCC(=O)O)CC4)nc3)nc(-c3cc(Cl)cc(Cl)c3)c2)CC1` [Example 85, 3-(4-(5-((6-(3,5-dichlorophenyl)-4-((4-((dimethylphosphoryl)methyl)piperidin-1-yl)methyl)pyridin-2-yl)oxy)pyridin-2-yl)piperazin-1-yl)propanoic acid], in test [1], the “furin enzyme pIC50” value turned out to be 8.1. In test [2], the EC50 is 158 nM.
For `NC(=O)CC1CCN(Cc2cc(Oc3cnc(N4CCNCC4)nc3)nc(-c3cc(Cl)cc(Cl)c3)c2)CC1` [Example 86, 2-(1-((2-(3,5-Dichlorophenyl)-6-((2-(piperazin-1-yl)pyrimidin-5-yl)oxy)pyridine-4-yl)methyl)piperidin-4-yl)acetamide, 4 hydrochloride], the “furin enzyme pIC50” value in test [1] was 8.9. For the same compound, the EC50 in test [2] was 10 nM.
For `CN1CCN(c2ncc(Oc3cc(CN4CCC(CCS(N)(=O)=O)CC4)cc(-c4cc(Cl)cc(Cl)c4)n3)cn2)CC1` [Example 87, 2-(1-((2-(3,5-Dichlorophenyl)-6-((2-(4-methylpiperazin-1-yl)pyrimidin-5-yl)oxy)pyridin-4-yl)methyl)piperidin-4-yl)ethanesulfonamide, 4 hydrochloride] the same measures were 9 and 3.98 nM.
As to `CC(=O)NCC1CCN(Cc2cc(Oc3cnc(N4CCN(CCC(N)=O)CC4)nc3)nc(-c3cc(Cl)cc(Cl)c3)c2)CC1` [Example 88, 3-(4-(5-((4-((4-(Acetamidomethyl)piperidin-1-yl)methyl)-6-(3,5-dichlorophenyl)pyridin-2-yl)oxy)pyrimidin-2-yl)piperazin-1-yl)propanamide], the “furin enzyme pIC50” value in test [1] stood at 9.1. Besides, the EC50 in test [2] is 5.01 nM.
For `CC(=O)NCC1CCN(Cc2cc(Oc3ccc(N4CCNCC4)nc3)nc(-c3cc(Cl)cc(Cl)c3)n2)CC1` [Example 89, N-((1-((2-(3,5-Dichlorophenyl)-6-((6-(piperazin-1-yl)pyridin-3-yl)oxy)pyrimidin-4-yl)methyl)piperidin-4-yl)methyl)acetamide, 4 hydrochloride] the same measures were 8 and 12.6 nM.
On the same counts, the results for `CC(=O)NCC1CCN(Cc2cc(-c3cc(Cl)cc(Cl)c3)nc(Oc3ccc(N4CCNCC4)nc3)n2)CC1` [Example 90, N-((1-((6-(3,5-Dichlorophenyl)-2-((6-(piperazin-1-yl)pyridin-3-yl)oxy)pyrimidin-4-yl)methyl)piperidin-4-yl)methyl)acetamide] are 8.5 and 7.94 nM.
With `CC(=O)NCC1(O)CCN(Cc2cc(Oc3cnc(N4CCNCC4)c(F)c3)nc(-c3cc(Cl)cc(Cl)c3)c2)CC1` [Example 91, N-((1-((2-(3,5-Dichlorophenyl)-6-((5-fluoro-6-(piperazin-1-yl)pyridin-3-yl)oxy)pyridin-4-yl)methyl)-4-hydroxypiperidin-4-yl)methyl)acetamide, 4 hydrochloride], the “furin enzyme pIC50” value in test [1] turned out to be 8.4. Further, in test [2], the EC50 is 39.8 nM.
For `CC(=O)NCC1CCN(Cc2cc(Oc3cnc(N4CCNCC4)nc3)nc(-c3cc(Cl)cc(Cl)c3)c2)CC1` [Example 92, N-((1-((2-(3,5-Dichlorophenyl)-6-((2-(piperazin-1-yl)pyrimidin-5-yl)oxy)pyridin-4-yl)methyl)piperidin-4-yl)methyl)acetamide] the same measures were 8.9 and 3.16 nM.
For `CC(=O)NCC1CCN(Cc2cc(Oc3cnc(N4CCN(CCO)CC4)nc3)nc(-c3cc(Cl)cc(Cl)c3)c2)CC1` [Example 93, N-((1-((2-(3,5-dichlorophenyl)-6-((2-(4-(2-hydroxyethyl)piperazin-1-yl)pyrimidin-5-yl)oxy)pyridin-4-yl)methyl)piperidin-4-yl)methyl)acetamide, 4 hydrochloride] the same measures were 8.9 and 5.01 nM.
For `CNC(=O)CCN1CCN(c2ncc(Oc3cc(CN4CCC(CNC(C)=O)CC4)cc(-c4cc(Cl)cc(Cl)c4)n3)cn2)CC1` [Example 94, 3-(4-(5-((4-((4-(Acetamidomethyl)piperidin-1-yl)methyl)-6-(3,5-dichlorophenyl)pyridin-2-yl)oxy)pyrimidin-2-yl)piperazin-1-yl)-N-methylpropanamide, 4 hydrochloride] the same measures were 8.9 and 5.01 nM.
Regarding `CC(=O)NCC1CCN(Cc2cc(Oc3cnc(N4CCN(C(C)CC(N)=O)CC4)nc3)nc(-c3cc(Cl)cc(Cl)c3)c2)CC1` (centres unmarked) [Example 95, 3-(4-(5-((4-((4-(Acetamidomethyl)piperidin-1-yl)methyl)-6-(3,5-dichlorophenyl)pyridin-2-yl)oxy)pyrimidin-2-yl)piperazin-1-yl)butanamide, 4 hydrochloride], the “furin enzyme pIC50” value in test [1] came out at 9.9. The EC50 in test [2] is 1.58 nM.
For `CC(=O)NCC1CCN(Cc2cc(Oc3cnc(N4CCN(CCCC(N)=O)CC4)nc3)nc(-c3cc(Cl)cc(Cl)c3)c2)CC1` [Example 96, 4-(4-(5-((4-((4-(Acetamidomethyl)piperidin-1-yl)methyl)-6-(3,5-dichlorophenyl)pyridin-2-yl)oxy)pyrimidin-2-yl)piperazin-1-yl)butanamide] the same measures were 9 and 1.58 nM.
Consider `CNC1CCN(c2ccc(Oc3cc(CNCCOC)cc(-c4cc(Cl)cc(Cl)c4)c3)cn2)CC1` [Example 97, 1-(5-((3′,5′-Dichloro-5-(((2-methoxyethyl)amino)methyl)-[1,1′-biphenyl]-3-yl)oxy)pyridin-2-yl)-N-methylpiperidin-4-amine], for which the “furin enzyme pIC50” value in test [1] came out at 8.4. For the same compound, the EC50 in test [2] was 25.1 nM.
For `CNCc1cc(Oc2ccc(N3CCNCC3)nc2)cc(-c2cc(Cl)cc(Cl)c2)c1` [Example 98, 1-(3′,5′-Dichloro-5-((6-(piperazin-1-yl)pyridin-3-yl)oxy)-[1,1′-biphenyl]-3-yl)-N-methylmethanamine, 3 hydrochloride], the “furin enzyme pIC50” value in test [1] worked out at 8.7. The EC50 in test [2] was 39.8 nM.
As for `NCCNc1ccc(Oc2cc(CN3CCOCC3)cc(-c3cc(Cl)cc(Cl)c3)c2)cn1` [Example 99, N^1-(5-((3′,5′-Dichloro-5-(morpholinomethyl))-[1,1′-biphenyl]-3-yl)oxy)pyridin-2-yl)ethane-1,2-diamine, 3 hydrochloride], the “furin enzyme pIC50” value in test [1] is 7.2. In test [2], the EC50 was 251 nM.
On the same counts, the results for `CNCc1cc(Oc2ccc(N3CCC(N)CC3)nc2)cc(-c2cc(Cl)cc(Cl)c2)c1` [Example 100, 1-(5-((3′,5′-Dichloro-5-((methylamino)methyl)-[1,1′-biphenyl]-3-yl)oxy)pyridin-2-yl)piperidin-4-amine, 3 hydrochloride] are 8.8 and 79.4 nM.
